The values below come from patent US20140336138A1, “COMPOSITIONS AND METHODS FOR SCREENING AND TREATMENT OF STURGE-WEBER SYNDROME, KLIPPEL-TRENAUNAY-WEBER SYNDROME, AND PORT-WINE STAINS (PWSS)” (The Johns Hopkins University, priority 2013, published 2014).

For one data set, the system named is RGS4. Particulars: cited from earlier work.
The subject of a further data set is RGS2. As to conditions: cited from earlier work.
In data set [1] the test system is cells transfected with the R183Q mutation. The data set is described as follows: Cell death / appearance of drug treated R183Q transfected cell cultures. It counts as cell-based, human. As to conditions: 100 nM digoxin.
A further data set deals with phosphorylated-ERK. The data set is described as follows: Western analysis of phosphorylated-ERK in 293T cells transfected with GNAQ p.R183Q, normalized to tubulin. Particulars: 100 nM digoxin, 42 hours, p=0.0003. It counts as cell-based, human. As for the experimental part: 293T cells will be transiently transfected with wildtype, GNAQ, the p.Arg183Gln, or the p.Gln209Leu mutant constructs. Fugene6 (Promega) is used for the 293T transfections (3:1 ratio Fugene6:DNA). The cells are transfected at 60-75% confluency for about an hour.
Levels of phosphorylated-ERK (rabbit monoclonal Phospho-p44/42 MAPK (Erk1/2) Cell Signaling Technology) and phosphorylated-JNK are measured by western analysis and normalized to tubulin. RGS2 and/or RGS4 levels are measured by western analysis and normalized to tubulin. Protein samples are collected from three replicates per cell type and condition. Additionally, similar experiments are performed with the p.Gln209Leu GNAQ mutants as well.

Turning to `C[C@H]1O[C@@H](O[C@H]2[C@@H](O)C[C@H](O[C@H]3[C@@H](O)C[C@H](O[C@H]4CC[C@@]5(C)[C@H](CC[C@@H]6[C@@H]5C[C@@H](O)[C@]5(C)[C@@H](C7=CC(=O)OC7)CC[C@]65O)C4)O[C@@H]3C)O[C@@H]2C)C[C@H](O)[C@@H]1O` [digoxin], in the data set on RGS4, the RGS4 protein levels entry was “not”. In the data set on RGS2, the RGS2 protein levels result is “increase”. Moreover, in data set [1] (18 hours), the “cell death in drug treated cell cultures” value is “increased cell death”. In addition, in data set [1] (42 hours), the “cell death / growth in drug treated cells” value is on record as “increased cell death/less growth”. The “p-ERK increase (drug vs vehicle)” value with phosphorylated-ERK is “about 3.9 fold”.
Turning to `C[C@@H]1O[C@@H](O[C@H]2C[C@@H](O)[C@]3(CO)[C@H]4[C@H](O)C[C@]5(C)[C@@H](C6=CC(=O)OC6)CC[C@]5(O)[C@@H]4CC[C@]3(O)C2)[C@H](O)[C@H](O)[C@H]1O` [ouabain], in the data set with RGS4, the RGS4 protein levels result is listed as “not”. Moreover, the RGS2 protein levels result with RGS2 is listed as “increase”.
